Values joined by “and” are separate entries in the source; they are usually repeats but may differ in a detail not shown here. Equal values may be shown once.
Target: T1, mP2X7R (Mus musculus, UniProt Q9Z1M0)
T1 construct: expressed in transfected cells
T1 sequence (Q9Z1M0 1-595): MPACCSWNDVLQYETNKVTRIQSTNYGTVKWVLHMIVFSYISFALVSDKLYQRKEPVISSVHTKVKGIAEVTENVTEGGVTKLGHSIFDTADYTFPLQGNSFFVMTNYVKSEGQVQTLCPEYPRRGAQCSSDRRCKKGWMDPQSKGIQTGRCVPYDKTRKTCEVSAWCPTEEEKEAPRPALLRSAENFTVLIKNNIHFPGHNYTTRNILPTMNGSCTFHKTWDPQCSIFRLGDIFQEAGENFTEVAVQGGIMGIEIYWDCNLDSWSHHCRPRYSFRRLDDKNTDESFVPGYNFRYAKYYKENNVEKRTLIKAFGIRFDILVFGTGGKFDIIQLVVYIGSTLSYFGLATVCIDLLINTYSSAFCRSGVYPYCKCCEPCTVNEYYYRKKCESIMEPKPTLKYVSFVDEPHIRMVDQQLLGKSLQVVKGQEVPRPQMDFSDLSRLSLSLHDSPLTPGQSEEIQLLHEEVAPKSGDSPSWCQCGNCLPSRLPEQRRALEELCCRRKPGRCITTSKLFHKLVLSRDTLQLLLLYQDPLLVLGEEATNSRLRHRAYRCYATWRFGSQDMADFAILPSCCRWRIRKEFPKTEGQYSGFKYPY
Test: Calcium influx assay, 1321N1 astrocytoma cells, BzATP EC80
Format: cell-based
Details: for IC50: 1321N1 cells, BzATP EC80, mean ± SD
From the text: . For 1321N1 astrocytoma cells stably expressing the human, rat, or mouse P2X7Rs, or hP2X2Rs or hP2X4Rs, the fluorescent Ca^2+-chelating dye Fluo-4 acetoxymethyl ester (Fluo-4 AM, Thermo Fisher Scientific, Dreieich, Germany) was used. For 1321N1 astrocytoma cell lines recombinantly expressing the hP2X1Rs or hP2X3Rs, the FLIPR® Calcium 5 Assay Kit (Molecular Devices, San José, CA, USA) was employed. Human, rat, and mouse P2X7Rs as well as hP2X1Rs, hP2X2Rs, hP2X3Rs, and hP2X4Rs were recombinantly expressed in 1321N1 astrocytoma cells using a retroviral expression system[72]–[74].
On the first day, 45,000 cells per well (30,000 cells for the human P2X3 receptor-expressing cells) were seeded into a 96-well polystyrene microplate with a black, flat bottom in a final volume of 200 µL. After overnight incubation at 37 °C and 10% CO2 (5% CO2 for the human P2X3R-expressing cell line), the medium was removed by inverting the plate, and the cells were loaded with dye solution. Hanks’ balanced salt solution (HBSS, Thermo Fisher Scientific, Dreieich, Germany) was used as the assay buffer for human P2X1R, P2X2R, P2X3R, and P2X4R. For the P2X7Rs, a different assay buffer was used: 150 mM sodium-glutamate, 5 mM KCl, 0.5 mM CaCl2, 0.1 mM MgCl2, 10 mM D-glucose, 25 mM 4-(2-hydroxyethyl)-1-piperazineethanesulfonic acid (HEPES), pH 7.4. The dye solutions were freshly prepared. The Fluo-4 AM solution contained 3 µM of Fluo-4 AM in assay buffer and 1% of the non-ionic detergent Pluronic F-127® (Sigma-Aldrich, Taufkirchen, Germany). The Calcium 5 dye, used for hP2X1Rs and hP2X3Rs, was prepared in HBSS buffer. Cells were loaded with Fluo-4 AM and incubated for 1 h at room temperature with gentle shaking (100 rpm), while those loaded with the Calcium 5 dye were incubated for 1 h at 37 °C. After incubation, the dye solution was carefully removed from the plate, and buffer was added to the cells for the evaluation of agonists. […] The agonist solution was prepared in a 96-well transparent plate, obtaining the respective EC80 values. As a control, assay buffer without the test compound was used. After 30 min of incubation with antagonist, the plates were measured using a fluorescence imaging plate reader NOVOstar (BMG Labtech GmbH, Offenburg, Germany) at an excitation wavelength of 485 nm and an emission wavelength of 520 nm, for 30 s at 0.4 s intervals. Calcium influx measurements were then initiated by automatic addition of 20 µL of agonist solution by the plate reader’s pipetting device. Data were analyzed using Microsoft Excel and GraphPad Prism (Version 8.0, San Diego, CA, USA). EC80 and IC50 values were calculated using nonlinear regression with a sigmoidal dose-response equation.

Row | activity at 0.003 µM (1321-N1, Log(c) M -8.52288, read-out: normalized calcium signal, mP2X7R IC50 curve) | IC50 | Compound | normalized calcium signal, mP2X7R IC50 curve (Log(c) M -7, 0.1 µM) | normalized calcium signal, mP2X7R IC50 curve (Log(c) M -7.52288, 0.03 µM) | normalized calcium signal, mP2X7R IC50 curve (Log(c) M -8, 0.01 µM) | normalized calcium signal, mP2X7R IC50 curve (Log(c) M -8.52288, 0.003 µM) | normalized calcium signal, mP2X7R IC50 curve (Log(c) M -9, 0.001 µM) | normalized calcium signal, mP2X7R IC50 curve (Log(c) M -9.52288, 0.0003 µM) | times more potent than UB-ALT-P30 on the mP2X7R (calcium influx)
1 | 101% | 148 ± 27 nM | O=C(NNc1ccccc1Cl)C12CC3CC(CC(C3)C1)C2 [UB-ALT-P30, reference compound] | 58.6062 and 69.2329 and 80.2999 and 70.4572 and 91.3507 and 85.9323 and 94.1322 | 92.3415 and 79.1265 and 114.599 and 132.12 and 97.8989 and 119.546 | 92.8335 and 100.155 and 89.6254 and 122.632 and 113.342 and 120.308 | 96.3012 and 101.363 |  |  | 
2 |  | 4.52 ± 0.72 nM | CC12CC3CC1(C)C1(C)CC3(C(=O)NNc3ccccc3Cl)CC21C [UB-MBX-46] |  |  |  | 72.2751 and 83.0134 and 65.4518 and 88.1956 and 92.7904 and 87.7744 and 76.3105 and 64.8252 | 110.597 and 115.455 and 88.4 and 102.046 and 107.58 and 103.403 and 110.382 | 115.86 and 127.811 and 92.8545 and 89.4511 and 104.887 and 106.902 and 87.8281 and 105.571 | ~ 33 x

— PMC12436592 (Nature Communications, 2025)
